In ChEMBL document CHEMBL3507680, “University of Dundee, Gates Library screen for HepG2 cell viability”:

Test: Human HepG2 cell viability assay in 384 well format
Format: toxicity, cell-based
Set-up: dose 125 nL, time 70.5 hour; cytotoxicity at 70.5 h: concentration not given beside the values
Conditions: HepG2 cells, read-out: Inhibition

SMILES | cytotoxicity at 70.5 h
O=C(NCCCN1CCc2ccccc2C1)c1ccccc1Br | -7.72%
CCC(C#N)NC(=O)c1cc(Br)c2c(c1)OCCO2 (centres undefined) | -9.18%
CNc1snc(C)c1C(=O)N1CCCC(n2ccnc2C)C1 (centres undefined) | -4.48%
OC(CNCCn1cccn1)c1ccc(Br)cc1 (centres undefined) | 15.8%
Cc1cn2c(n1)CCC(NC(=O)c1cc(C3CC3)[nH]n1)C2 (centres undefined) | -4.74%
Cc1nc(C2CCCN2Cc2cc(=O)n(C)c(=O)n2C)no1 (centres undefined) | -1.72%
Cc1nccc(C(=O)N2CCCC2c2c(C)nn(C)c2C)n1 (centres undefined) | 16.2%
Cc1cccc(-c2nc(CN3CCCC3Cn3cc(C)cn3)no2)c1 (centres undefined) | 6.59%
Cc1cnn(CC2CCCN2Cc2noc(C)n2)c1 (centres undefined) | -9.78%
CN(C)CC1CN(Cc2coc(-c3cccc(F)c3)n2)CCO1 (centres undefined) | 3.34%
COC(=O)CC(NC(=O)c1ccccc1OC)c1cccs1 (centres undefined) | 5.97%
COc1ccc(Cl)cc1C(=O)NC(CC(=O)O)c1cccs1 (centres undefined) | -11%
COc1ccc(Br)c(C(=O)NC(CC(=O)O)c2cccs2)c1 (centres undefined) | -11.5%
Cc1ccc(C(=O)NCc2ccc(N3CCCC(C(N)=O)C3)cc2)o1 (centres undefined) | -14.6%
CCOc1ccccc1C(=O)NC(CC(=O)O)c1cccs1 (centres undefined) | -6.28%
COc1ccc(C)cc1C(=O)NC(CC(=O)O)c1cccs1 (centres undefined) | -11.4%
Cc1cnn(C2CCCN(C(=O)c3cc(Cl)c4c(c3)OCO4)C2)c1 (centres undefined) | 7.73%
O=C(c1ccc2c(c1)OCCCO2)N1CCCC(n2ccnc2)C1 (centres undefined) | -8.38%
CN(C)CC1CN(Cc2coc(-c3ccc(Cl)cc3)n2)CCO1 (centres undefined) | 12.9%
COc1cc(C(=O)NC(CC(=O)O)c2cccs2)cc(OC)c1C (centres undefined) | -6.87%

SMILES | cytotoxicity at 70.5 h
COCCc1noc(CN2CCCC2c2c(C)nn(C)c2OC)n1 (centres undefined) | -3.49%
CCn1cnnc1CNC(=O)N1CCC(O)CC1 | -5.8%
Cn1ccnc1CN1CCCN(C(=O)COCC2CC2)CC1 | -3.74%
O=C(CN1CCN(C(=O)c2sccc2C2CC2)CC1)NC1CC1 | 8.72%
Cc1nc(C)n(CC2CCCN2Cc2nc3ccccc3o2)n1 (centres undefined) | -5.98%
CC(OCC1CC1)C(=O)N1CCCN(Cc2nccn2C(C)C)CC1 (centres undefined) | -5.25%
Cn1ccnc1CN1CCCN(C(=O)CC(C2CC2)C2CC2)CC1 | 0.914%
Cc1cnn(CC2CCCN2CC(=O)NC2CCN(C3CC3)CC2)c1 (centres undefined) | -3.72%
Cc1nc(C2CCCN(C(=O)c3cccc4c3OCO4)C2)sc1C (centres undefined) | -2.18%
Cc1csc(C2CCCN(C(=O)c3cccc4c3OCO4)C2)n1 (centres undefined) | -4.7%
CC(C)c1nc(C2CCCN(C(=O)c3cccc4c3OCO4)C2)no1 (centres undefined) | -1.62%
COCCn1cc(NC(=O)NC(C)Cc2c(F)cccc2F)cn1 (centres undefined) | 12.3%
Cc1cc(NC(=O)NCc2cccnc2OC2CCCC2)n(C)n1 | -2.74%
COc1ncccc1CNC(=O)Nc1cc(C)nn1C | -7.29%
Cc1cccnc1NC(=O)NCc1cccnc1OC(C)C | -6.17%
Cc1ccccc1CNC(C)c1ccc(OCC(=O)NC2CC2)cc1 (centres undefined) | 13.8%
CC(Cc1ccccc1Cl)NC(=O)Nc1cnn(CC(N)=O)c1 (centres undefined) | -2.99%
COc1ccc(COCC(O)CNC(=O)c2cc(C)no2)cc1 (centres undefined) | -4.49%
COc1ccc(COCC(O)CNC(=O)c2cc(C)oc2C)cc1 (centres undefined) | 1.97%
Cc1ncccc1CNCC1CCN(CCO)CC1 | -0.718%

SMILES | cytotoxicity at 70.5 h
Cc1cnn(CC(C)NCc2ccc(OCc3cccnc3)cc2)c1 (centres undefined) | 2.45%
Cc1cnn(CC(C)NCc2ccc(OCc3cscn3)cc2)c1 (centres undefined) | -6.24%
Cc1nnc2n1CCN(CCOc1ccc(C(C)(C)C)cc1)C2 | -4.66%
O=C(NC1CC1)C1CCN(c2snc3ccccc23)CC1 | 15.8%
CC1CCCN(C(=O)C2CCN(c3snc4ccccc34)CC2)C1 (centres undefined) | 5.93%
CSCC(=O)N1CCCCC1Cn1cc(C)cn1 (centres undefined) | -1.03%
Cc1cnn(CC2CCCN2C(=O)Cc2c(C)nc(C)[nH]c2=O)c1 (centres undefined) | 15.2%
CCc1nc(C)ncc1C(=O)N1CCOC(c2nc(C)n[nH]2)C1 (centres undefined) | -0.337%
CCCc1n[nH]c(C2CN(CCNS(C)(=O)=O)CCO2)n1 (centres undefined) | 25.5%
CCn1ccnc1CN1CCCN(C(=O)COC2CCCC2)CC1 | 22.5%
Cc1cc(CN(Cc2cccs2)CC2CCCO2)on1 (centres undefined) | 20.8%
CC(C)(C)n1cc(C(=O)N2CCN(Cc3ccsc3)CC2)cn1 | -0.132%
CC(C)c1ccc(OCCC(=O)N2CCC(CC(N)=O)CC2)cc1 | -3.31%
CC1CN(C(=O)NCCCn2cncn2)CCO1 (centres undefined) | -1.85%
CCc1nnc2n1CCN(CC(=O)Nc1cc(C(C)(C)C)nn1C)C2 | 0.0813%
O=C(Nc1cnn(CCN2CCOCC2)c1)c1cc(F)ccc1F | -2.44%
Cc1nn(CC(=O)N2CCC(Nc3cccnn3)CC2)c(C)c1Cl | 28.5%
CS(=O)(=O)N1CCCCCC1C1CCN(c2ncccn2)CC1 (centres undefined) | 15.3%
Cc1cnn(CCNCc2csc(-c3cccs3)n2)c1 | -4.79%
